Source: patent US20100204265A1 (priority 2009, published 2010)

system: ET (Huh-lucubineo-ET) cell line harboring I389luc-ubi-neo/NS3-3′/ET HCV replicon; assay: Replicon assay (HCV replicon, luciferase readout); assay type: cell-based; conditions: Hepatitis C virus
Method: A cell line, ET (Huh-lucubineo-ET) is used for screening of compounds for inhibiting HCV RNA dependent RNA polymerase. The ET cell line is stably transfected with RNA transcripts harboring a I389luc-ubi-neo/NS3-3′/ET; replicon with firefly luciferase-ubiquitin-neomycin phosphotransferase fusion protein and EMCV-IRES driven NS3-5B polyprotein containing the cell culture adaptive mutations (E1202G; T1280I; K1846T) (Krieger at al, 2001 and unpublished). The ET cells are grown in DMEM (Dulbeco's Modified Eagle's Medium), supplemented with 10% fetal calf serum, 2 mM Glutamine, Penicillin (100 IU/mL)/Streptomycin (100 μg/mL), 1× nonessential amino acids, and 250 μg/mL G418 (“Geneticin”). They are all available through Life Technologies (Bethesda, Md.). The cells are plated at 0.5−1.0×10^4 cells/well in the 96 well plates and incubated for 24 hrs before adding test compound. The compounds are added to the cells to achieve a final concentration of 0.1 nM to […] and a final DMSO (dimethylsulfoxide) concentration of 0.5%. Luciferase activity is measured 48-72 hours later by adding a lysis buffer and the substrate (Catalog number Glo-lysis buffer E2661 and Bright-Glo luciferase system E2620 Promega, Madison, Wis.). Cells should not be too confluent during the assay. Percent inhibition of replication data is plotted relative to no compound control. Under the same condition, cytotoxicity of the compounds are determined using cell proliferation reagent, WST-1 (Roche, Germany). The compounds showing antiviral activities, but no significant cytotoxicities are chosen to determine EC50 and TC50. For these determinations, a 10 point, 2-fold serial dilution for each compound was used, which spans a concentration range of 1000 fold. EC50 and similarly TC50 values were calculated by fitting % inhibition at each concentration to the following equation:
% inhibition=100%/[(EC50/[I])^b+1]
where b is Hill's coefficient.

**Q.** How did the EC50 turn out when `O=C(Cc1cn2cc(-c3ccoc3)cc(C(F)(F)F)c2n1)N1CC=C(c2nccs2)C1` [Compound 186, 2-(6-Furan-3-yl-8-trifluoromethyl-imidazo[1,2-a]pyridin-2-yl)-1-(3-thiazol-2-yl-2,5-dihydro-pyrrol-1-yl)-ethanone] was run?
**A.** Its EC50 is 5.98 µM.

**Q.** How did the EC50 turn out when `N#CC1(c2cccs2)CCN(C(=O)c2nc3c(C(F)(F)F)cc(-c4ccoc4)cn3c2Cl)CC1` [Compound 221, 1-(3-Chloro-6-furan-3-yl-8-trifluoromethyl-imidazo[1,2-a]pyridine-2-carbonyl)-4-thiophen-2-yl-piperidine-4-carbonitrile] was run?
**A.** Its EC50 is 0.0455 µM.

**Q.** With `O=C(NCc1cn2cc(-c3ccoc3)cc(C(F)(F)F)c2n1)c1ccccc1` [Compound 130, N-(6-Furan-3-yl-8-trifluoromethyl-imidazo[1,2-a]pyridin-2-ylmethyl)-benzamide] as the compound, how does the EC50 read?
**A.** Its EC50 is 49.8 µM.

**Q.** How did the EC50 turn out when `O=C(Cc1cccc(F)c1)NCc1cn2cc(-c3ccoc3)cc(C(F)(F)F)c2n1` [Compound 128, 2-(3-Fluoro-phenyl)-N-(6-furan-3-yl-8-trifluoromethyl-imidazo[1,2-a]pyridin-2-ylmethyl)-acetamide] was run?
**A.** Its EC50 is 4.83 µM.

**Q.** How did the EC50 turn out when `CC(=O)NC(CC(C)C)C(=O)NCc1cn2cc(-c3ccoc3)cc(C(F)(F)F)c2n1` (centres unmarked) [Compound 243, 2-Acetylamino-4-methyl-pentanoic acid (6-furan-3-yl-8-trifluoromethyl-imidazo[1,2-a]pyridin-2-ylmethyl)-amide] was run?
**A.** The EC50 was > 50 µM.

**Q.** `O=C(c1nc2c(C(F)(F)F)cc(-c3ccoc3)cn2c1CO)N1CC=C(c2nccs2)C1` [Compound 170, (6-Furan-3-yl-3-hydroxymethyl-8-trifluoromethyl-imidazo[1,2-a]pyridin-2-yl)-(3-thiazol-2-yl-2,5-dihydro-pyrrol-1-yl) methanone] was tested. Which EC50 did it give?
**A.** The EC50 was 0.026 µM.

**Q.** For `COC(=O)C(Cc1c[nH]c2ccccc12)NC(=O)Cc1cn2cc(-c3ccoc3)cc(C(F)(F)F)c2n1` (centres unmarked) [Compound 311, 2-[2-(6-Furan-3-yl-8-trifluoromethyl-imidazol[1,2-a]pyridin-2-yl)-acetylamino]-3-(1H-indol-3-yl)-propionic acid methyl ester], which EC50 is on record?
**A.** The EC50 was > 50 µM.

**Q.** Which EC50 does the source give for `CC(C)CC(NC(=O)c1cn2cc(-c3ccoc3)cc(C(F)(F)F)c2n1)C(=O)O` (centres unmarked) [Compound 270, 2-[(6-Furan-3-yl-8-trifluoromethyl-imidazo[1,2-a]pyridine-2-carbonyl)-amino]-4-methyl-pentanoic acid] here?
**A.** Its EC50 is > 50 µM.

**Q.** `O=C(c1nc2c(C(F)(F)F)cc(-c3cscn3)cn2c1Cl)N1CC=C(c2ncccc2F)CC1` [Compound 120, (3-Chloro-6-thiazol-4-yl-8-trifluoromethyl-imidazo[1,2-a]pyridin-2-yl)-(3-fluoro-3′,6′-dihydro-2′H-[2,4′]bipyridinyl-1′-yl)-methanone] was tested. Which EC50 did it give?
**A.** Its EC50 is 3.04 µM.

**Q.** `COC(=O)C(C)NC(=O)c1cn2cc(-c3ccoc3)cc(C(F)(F)F)c2n1` (centres unmarked) [Compound 250, 2-[(6-Furan-3-yl-8-trifluoromethyl-imidazo[1,2-a]pyridine-2-carbonyl)-amino]-propionic acid methyl ester] was tested. Which EC50 did it give?
**A.** Its EC50 is > 50 µM.

**Q.** How did the EC50 turn out when `CC(=O)N1CCCC1C(=O)NCc1cn2cc(-c3ccoc3)cc(C(F)(F)F)c2n1` (centres unmarked) [Compound 284, 1-Acetyl-pyrrolidine-2-carboxylic acid (6-furan-3-yl-8-trifluoromethyl-imidazo[1,2-a]pyridin-2-ylmethyl)-amide] was run?
**A.** Its EC50 is > 50 µM.

**Q.** How did the EC50 turn out when `COC(=O)C(NC(=O)Cc1cn2cc(-c3ccoc3)cc(C(F)(F)F)c2n1)c1ccccc1` (centres unmarked) [Compound 309, [2-(6-Furan-3-yl-8-trifluoromethyl-imidazo[1,2-a]pyridin-2-yl)-acetylamino]-phenyl-acetic acid methyl ester] was run?
**A.** The EC50 was > 50 µM.

**Q.** `CC(C)CCC1CCN(C(=O)c2nc3c(C(F)(F)F)cc(-c4ccoc4)cn3c2Cl)CC1` [Compound 225, (3-Chloro-6-furan-3-yl-8-trifluoromethyl-imidazo[1,2-a]pyridin-2-yl)-[4-(3-methyl-butyl)-piperidin-1-yl]-methanone] was tested. Which EC50 did it give?
**A.** Its EC50 is 2.29 µM.

**Q.** Which EC50 does the source give for `CC(C)(C)C(NC(=O)c1cn2cc(-c3ccoc3)cc(C(F)(F)F)c2n1)C(=O)O` (centres unmarked) [Compound 273, 2-[(6-Furan-3-yl-8-trifluoromethyl-imidazo[1,2-a]pyridine-2-carbonyl)-amino]-3,3-dimethyl-butyric acid] here?
**A.** The EC50 was > 50 µM.

**Q.** Which EC50 does the source give for `CS(=O)(=O)N(CCO)C1CN(C(=O)c2nc3c(C(F)(F)F)cc(-c4ccoc4)cn3c2Cl)C1` [Compound 144, N-[1-(3-Chloro-6-furan-3-yl-8-trifluoromethyl-imidazo[1,2-a]pyridine-2-carbonyl)-azetidin-3-yl]-N-(2-hydroxy-ethyl)-methanesulfonamide] here?
**A.** The EC50 was 7.55 µM.

**Q.** How did the EC50 turn out when `COC(=O)C(CC(C)C)NC(=O)c1cn2cc(-c3ccoc3)cc(C(F)(F)F)c2n1` (centres unmarked) [Compound 156, 2-[(6-Furan-3-yl-8-trifluoromethyl-imidazo[1,2-a]pyridine-2-carbonyl)-amino]-4-methyl-pentanoic acid methyl ester] was run?
**A.** Its EC50 is 46.8 µM.

**Q.** For `CCCOC1CCN(C(=O)c2nc3c(C(F)(F)F)cc(-c4cn[nH]c4)cn3c2Cl)CC1` [Compound 176, [3-Chloro-6-(1H-pyrazol-4-yl)-8-trifluoromethyl-imidazo[1,2-a]pyridin-2-yl]-(4-propoxy-piperidin-1-yl)-methanone], which EC50 is on record?
**A.** Its EC50 is 0.883 µM.

**Q.** How did the EC50 turn out when `C=CC(=O)N[C@@H]1CCN(C(=O)c2nc3c(C(F)(F)F)cc(-c4ccoc4)cn3c2Cl)C1` [Compound 167, N-[1-(3-Chloro-6-furan-3-yl-8-trifluoromethyl-imidazo[1,2-a]pyridine-2-carbonyl)-pyrrolidin-3-yl]-acrylamide] was run?
**A.** Its EC50 is 1.68 µM.

**Q.** With `COC(=O)C(Cc1ccccc1)NC(=O)Cc1cn2cc(-c3ccoc3)cc(C(F)(F)F)c2n1` (centres unmarked) [Compound 312, 2-[2-(6-Furan-3-yl-8-trifluoromethyl-imidazo[1,2-a]pyridin-2-yl)-acetylamino]-3-phenyl-propionic acid methyl ester] as the compound, how does the EC50 read?
**A.** The EC50 was > 50 µM.

**Q.** Which EC50 does the source give for `O=C(O)c1nc2c(C(F)(F)F)cc(-c3ccoc3)cn2c1Cl` [Compound 101, 3-Chloro-6-furan-3-yl-8-trifluoromethyl-imidazo[1,2-a]pyridine-2-carboxylic acid] here?
**A.** The EC50 was 7.01 µM.

**Q.** `O=C(c1nc2c(C(F)(F)F)cc(-c3cn[nH]c3)cn2c1Cl)N1CC=C(c2cc[nH]n2)C1` [Compound 137, [3-Chloro-6-(1H-pyrazol-4-yl)-8-trifluoromethyl-imidazo[1,2-a]pyridin-2-yl]-[3-(1H-pyrazol-3-yl)-2,5-dihydro-pyrrol-1-yl]-methanone] was tested. Which EC50 did it give?
**A.** The EC50 was > 50 µM.

**Q.** Which EC50 does the source give for `O=C(c1nc2c(C(F)(F)F)cc(-c3cccs3)cn2c1Cl)N1CC=C(c2ncccc2F)CC1` [Compound 123, (3-Chloro-6-thiophen-2-yl-8-trifluoromethyl-imidazo[1,2-a]pyridin-2-yl)-(3-fluoro-3′,6′-dihydro-2′H-[2,4′]bipyridinyl-1′-yl)-methanone] here?
**A.** Its EC50 is 0.147 µM.

**Q.** With `O=C(c1nc2c(C(F)(F)F)cc(-c3cn[nH]c3)cn2c1Cl)N1CC=C(c2ccccc2F)C1` [Compound 103, [3-Chloro-6-(1H-pyrazol-4-yl)-8-trifluoromethyl-imidazo[1,2-a]pyridin-2-yl]-[3-(2-fluoro-phenyl)-2,5-dihydro-pyrrol-1-yl]-methanone] as the compound, how does the EC50 read?
**A.** Its EC50 is 0.0389 µM.

**Q.** How did the EC50 turn out when `CS(=O)(=O)NC1CN(C(=O)c2nc3c(C(F)(F)F)cc(Br)cn3c2Cl)C1` [Compound 140, N-[1-(6-Bromo-3-chloro-8-trifluoromethyl-imidazo[1,2-a]pyridine-2-carbonyl)-azetidin-3-yl]-methanesulfonamide] was run?
**A.** Its EC50 is 13.8 µM.

**Q.** With `NC(=O)C1CCCN1C(=O)c1nc2c(C(F)(F)F)cc(-c3ccoc3)cn2c1Cl` (centres unmarked) [Compound 237, 1-(3-Chloro-6-furan-3-yl-8-trifluoromethyl-imidazo[1,2-a]pyridine-2-carbonyl)-pyrrolidine-2-carboxylic acid amide] as the compound, how does the EC50 read?
**A.** The EC50 was > 50 µM.

**Q.** For `COC(=O)CCNC(=O)Cc1cn2cc(-c3ccoc3)cc(C(F)(F)F)c2n1` [Compound 295, 3-[2-(6-Furan-3-yl-8-trifluoromethyl-imidazo[1,2-a]pyridin-2-yl)-acetylamino]-propionic acid methyl ester], which EC50 is on record?
**A.** The EC50 was > 50 µM.

**Q.** Which EC50 does the source give for `CC(=O)NC(C(=O)NCc1cn2cc(-c3ccoc3)cc(C(F)(F)F)c2n1)C(C)C` (centres unmarked) [Compound 261, 2-Acetylamino-N-(6-furan-3-yl-8-trifluoromethyl-imidazo[1,2-a]pyridin-2-ylmethyl)-3-methyl-butyramide] here?
**A.** The EC50 was > 50 µM.

**Q.** `CC(C)CC(N)C(=O)NCc1cn2cc(-c3ccoc3)cc(C(F)(F)F)c2n1` (centres unmarked) [Compound 241, 2-Amino-4-methyl-pentanoic acid (6-furan-3-yl-8-trifluoromethyl-imidazo[1,2-a]pyridin-2-ylmethyl)-amide] was tested. Which EC50 did it give?
**A.** Its EC50 is > 50 µM.

**Q.** For `C=Cc1cc(C(F)(F)F)c2nc(C(=O)N3CC=C(c4ncccc4F)CC3)c(Cl)n2c1` [Compound 126, (3-Chloro-8-trifluoromethyl-6-vinyl-imidazo[1,2-a]pyridin-2-yl)-(3-fluoro-3′,6′-dihydro-2′H-[2,4′]bipyridinyl-1′-yl)-methanone], which EC50 is on record?
**A.** Its EC50 is 0.0275 µM.
